# US10881679B2, “Application of a phillyrin/phillygeninin composition in preparing a medicine or health care product for alleviating or/and treating viral diseases, and medicine or health care product for treating viral diseases” (priority 2014, dated 2021)
# Marks after values point to notes of the source that are not given here.
# Key:
# [1] = test system: rat fever induced by beer yeast; test: Rat fever induced by beer yeast (Saccharomyces cerevisiae); format: in vivo, Wistar rats; details: 10 mg/kg i.g.
# Procedure: Male Wistar rats with a weight of 180˜200 g were used. Normal anal temperature of each rat was measured twice (at a certain interval) with a WSC-411P portable digital thermometer, and a mean of the two measurement values was taken as a normal body temperature of the rat. Then, 300 rats with body temperature at 36.5˜38° C. were selected and randomly divided into 30 groups by weight: model groups (0.5% methyl cellulose), phillyrin/phillygeninin compositions A and B that are divided into low, medium and high dose groups (2.5, 5, 10 mg/kg) respectively, phillyrin groups (13 mg/kg), phillygeninin groups (13 mg/kg), and positive drug paracetamol groups (100 mg/kg). Each group has 10 rates, and the test is repeated 3 times for each group. 10 mL/kg of 10% fresh Saccharomyces cerevisiae suspension was subcutaneously injected to the back of the rats of each group to induce fever. After administration of 10% fresh Saccharomyces cerevisiae suspension for 6.0 h, the phillyrin/phillygeninin composition and the paracetamol positive drug were administered by intragastric administration, and the same volume of 0.5% methyl cellulose is administrated to the model group by intragastric administration. Rectal temperatures were respectively measured at 1, 2, 3 and 4 h after the administration. Changes in the body temperature were observed and difference between the groups was compared by inter-group t test processing through antipyretic percentage. The above test was repeated totally 3 times.
# [2] = test system: sweat secretion of rat paws; test: Sweat secretion of rat paws (coloring method); format: in vivo, Wistar rats; details: dose not given
# Description: The test is based on a mechanism that distribution of sweat glands is present in footpads of rat paws, the amount of sweat secretion and variation thereof can be observed by using a mechanism that a purple color can be produced by contacting iodine and starch when encountered with sweat.
# 500 Wistar rats with equal male and female number were used, weighing of 120˜150 g. These rats were randomly divided into 50 groups by weight and gender, i.e., namely 5 groups for the control groups (0.5% methyl cellulose), 5 groups for phillyrin groups, 5 groups for phillygeninin groups, 5 groups for the low, medium and high dose groups (2.5, 5, 10 mg/kg, respectively) of phillyrin/phillygeninin compositions A and B respactively, and 5 groups for the positive drug pilocarpine groups (35 mg/kg). Each group has 10 rats, 10 groups of rates are used for each test, which has 5 time periods (1, 5, 10, 15 and 20 min). The rats were placed into a self-made rat fixation bag, and both hind limbs of the rats were exposed. Dirt on the right paws was gently cleaned away using cotton swabs containing anhydrous alcohol. Pilocarpine solution was administered by subcutaneous injection, the remaining groups were subjected to intragastric administration. At 1 h (30 min for the pilocarpine group) after administration, pre-existing sweat and sweat generated due to struggle on the right paw of each rat in each group was gently wiped away with dry cotton swabs, then the paws were coated with solution A (dissolving 2 g iodine in 100 ml anhydrous alcohol) of Hetian-gaoyuanshi's reagent. After complete dryness, the paws were thinly coated with solution B (uniform mixture of 50 g soluble starch and 100 ml castor oil) of Hetian-gaoyuanshi's reagent. The color and number of dark purple coloring spots (i.e. sweat spots) were carefully observed at 1, 5, 10, 15 and 20 min after the coating of the solution B respectively with magnifying glass. After the test was completed, statistical treatment was performed according to the rank sum test with two-sample comparison, thereby comparing the differences among the various groups.
# parainfluenza virus = format: in vivo, Kunming mice; details: 13.0 mg/kg/d i.g. 5 days
# [3] = test system: Coxsackievirus A16 (CoxA16); test: Impact on virus-induced cytopathic effect in Vero cells (MTT): CoxA16; format: cell-based; details: CoxA16 100TCID50, Vero, 72 h; drug g/L as Table 1-2
# [4] = test system: Herpes zoster simplex viruses type I (HSV-I); test: Impact on virus-induced cytopathic effect in Vero cells (MTT): HSV-I; format: cell-based; details: HSV-I 100TCID50, Vero, 72 h; drug g/L as Table 1-2
# influenza virus [5] = format: in vivo, Kunming mice; details: 13.0 mg/kg/d i.g. 5 days
# influenza virus [6] = format: in vivo, Kunming mice; details: 13.0 mg/kg/d i.g. 5 days; remark: listed apart in the source
# adenovirus (ADV) = test: Impact on virus-induced cytopathic effect in Vero cells (MTT): ADV; format: cell-based; details: ADV 100TCID50, Vero, 72 h; drug g/L as Table 1-2
# [7] = test system: Coxsackie virus B3 (CVB3); test: Impact on virus-induced cytopathic effect in Vero cells (MTT): CVB3; format: cell-based; details: CVB3 100TCID50, Vero, 72 h; drug g/L as Table 1-2
# [8] = test system: respiratory syncytial virus (RSV); test: Impact on virus-induced cytopathic effect in Vero cells (MTT): RSV; format: cell-based; details: RSV 100TCID50, Vero, 72 h; drug g/L as Table 1-2
# [9] = 10 min after coating solution B
# [10] = 15 min after coating solution B
# [11] = 20 min after coating solution B
structure (smiles),measurement,setting,value
"COc1cc([C@H]2OC[C@H]3[C@@H]2CO[C@H]3c2ccc(OC)c(OC)c2)ccc1O [Phillygeninin, phillygeninin]",Body temperature,[1]; 1 h after administration,39.31 ± 0.48 °C
same,antipyretic percentage (%),[1]; 1 h after administration,−0.33 ± 0.41%
same,Body temperature,[1]; 2 h after administration,39.04 ± 0.45 °C
same,antipyretic percentage (%),[1]; 2 h after administration,−0.69 ± 0.93 %
same,Body temperature,[1]; 3 h after administration,38.91 ± 0.40 °C
same,antipyretic percentage (%),[1]; 3 h after administration,−1.03 ± 1.18 %
same,Body temperature,[1]; 4 h after administration,38.70 ± 0.31 °C
same,antipyretic percentage (%),[1]; 4 h after administration,−1.55 ± 1.23 %
same,Animal number of sweat spots of level +,[2]; 1 min after coating solution B,1 rats
same,Animal number of sweat spots of level ++,[2]; 1 min after coating solution B,3 rats
same,Animal number of sweat spots of level +++,[2]; 1 min after coating solution B,3 rats
same,Animal number of sweat spots of level ++++,[2]; 1 min after coating solution B,3 rats
same,Animal number of sweat spots of level −,[2]; 1 min after coating solution B,0 rats
same,Animal number of sweat spots of level +,[2]; 5 min after coating solution B,1 rats
same,Animal number of sweat spots of level ++,[2]; 5 min after coating solution B,3 rats
same,Animal number of sweat spots of level +++,[2]; 5 min after coating solution B,2 rats
same,Animal number of sweat spots of level ++++,[2]; 5 min after coating solution B,4 rats
same,Animal number of sweat spots of level −,[2]; 5 min after coating solution B,0 rats
same,Animal number of sweat spots of level +,[2]; [9],1 rats
same,Animal number of sweat spots of level ++,[2]; [9],3 rats
same,Animal number of sweat spots of level +++,[2]; [9],1 rats
same,Animal number of sweat spots of level ++++,[2]; [9],5 rats
same,Animal number of sweat spots of level −,[2]; [9],0 rats
same,Animal number of sweat spots of level +,[2]; [10],1 rats
same,Animal number of sweat spots of level ++,[2]; [10],1 rats
same,Animal number of sweat spots of level +++,[2]; [10],3 rats
same,Animal number of sweat spots of level ++++,[2]; [10],5 rats
same,Animal number of sweat spots of level −,[2]; [10],0 rats
same,Animal number of sweat spots of level +,[2]; [11],0 rats
same,Animal number of sweat spots of level ++,[2]; [11],1 rats
same,Animal number of sweat spots of level +++,[2]; [11],4 rats
same,Animal number of sweat spots of level ++++,[2]; [11],5 rats
same,Animal number of sweat spots of level −,[2]; [11],0 rats
same,Hemagglutination titer (InX),parainfluenza virus,23.79
same,Inhibition rate (%) of hemagglutination titer,parainfluenza virus,28.15%
same,antiviral effective rate (ER %),[3],50.04%
same,antiviral effective rate (ER %),[4],84.30** %
same,Hemagglutination titer (InX),influenza virus [5],22.61 ± 1.059
same,Inhibition rate (%) of hemagglutination titer,influenza virus [5],30.22%
same,Lung index,influenza virus [6],1.302 ± 0.046
same,Lung index inhibition rate,influenza virus [6],12.51
same,antiviral effective rate (ER %),adenovirus (ADV),50.61%
same,antiviral effective rate (ER %),[7],50.89%
same,antiviral effective rate (ER %),[8],80.88** %
COc1ccc([C@H]2OCC3C2CO[C@H]3c2ccc(O[C@@H]3OC(CO)[C@@H](O)[C@H](O)C3O)c(OC)c2)cc1OC (stereo partly shown) [phillyrin],Body temperature,[1]; 1 h after administration,39.13 ± 0.52 °C
same,antipyretic percentage (%),[1]; 1 h after administration,−0.60 ± 0.39%
same,Body temperature,[1]; 2 h after administration,38.77 ± 0.42 °C
same,antipyretic percentage (%),[1]; 2 h after administration,−0.92 ± 0.93 %
same,Body temperature,[1]; 3 h after administration,38.63 ± 0.40 °C
same,antipyretic percentage (%),[1]; 3 h after administration,−1.29 ± 1.18 %
same,Body temperature,[1]; 4 h after administration,38.46 ± 0.31 °C
same,antipyretic percentage (%),[1]; 4 h after administration,−1.70 ± 1.23 %
same,Animal number of sweat spots of level +,[2]; 1 min after coating solution B,2 rats
same,Animal number of sweat spots of level ++,[2]; 1 min after coating solution B,2 rats
same,Animal number of sweat spots of level +++,[2]; 1 min after coating solution B,2 rats
same,Animal number of sweat spots of level ++++,[2]; 1 min after coating solution B,4 rats
same,Animal number of sweat spots of level −,[2]; 1 min after coating solution B,0 rats
same,Animal number of sweat spots of level +,[2]; 5 min after coating solution B,1 rats
same,Animal number of sweat spots of level ++,[2]; 5 min after coating solution B,2 rats
same,Animal number of sweat spots of level +++,[2]; 5 min after coating solution B,2 rats
same,Animal number of sweat spots of level ++++,[2]; 5 min after coating solution B,5 rats
same,Animal number of sweat spots of level −,[2]; 5 min after coating solution B,0 rats
same,Animal number of sweat spots of level +,[2]; [9],1 rats
same,Animal number of sweat spots of level ++,[2]; [9],1 rats
same,Animal number of sweat spots of level +++,[2]; [9],3 rats
same,Animal number of sweat spots of level ++++,[2]; [9],5 rats
same,Animal number of sweat spots of level −,[2]; [9],0 rats
same,Animal number of sweat spots of level +,[2]; [10],1 rats
same,Animal number of sweat spots of level ++,[2]; [10],2 rats
same,Animal number of sweat spots of level +++,[2]; [10],4 rats
same,Animal number of sweat spots of level ++++,[2]; [10],5 rats
same,Animal number of sweat spots of level −,[2]; [10],0 rats
same,Animal number of sweat spots of level +,[2]; [11],0 rats
same,Animal number of sweat spots of level ++,[2]; [11],4 rats
same,Animal number of sweat spots of level +++,[2]; [11],0 rats
same,Animal number of sweat spots of level ++++,[2]; [11],6 rats
same,Animal number of sweat spots of level −,[2]; [11],0 rats
same,Hemagglutination titer (InX),parainfluenza virus,23.17
same,Inhibition rate (%) of hemagglutination titer,parainfluenza virus,30.01%
same,antiviral effective rate (ER %),[3],75.08** %
same,antiviral effective rate (ER %),[4],85.00** %
same,Hemagglutination titer (InX),influenza virus [5],22.06 ± 1.120
same,Inhibition rate (%) of hemagglutination titer,influenza virus [5],31.90%
same,Lung index,influenza virus [6],1.280 ± 0.040
same,Lung index inhibition rate,influenza virus [6],14.00
same,antiviral effective rate (ER %),adenovirus (ADV),75.14** %
same,antiviral effective rate (ER %),[7],75.27** %
same,antiviral effective rate (ER %),[8],80.40** %
